Measurements as given in the NIST ThermoML archive (doi:10.1021/je301004f).

What was measured:
[1] = refractive index (Na D-line) (dimensionless); details: 101.33 kPa, Liquid, Standard Abbe refractometry
[2] = for mass density / viscosity: 101.33 kPa, Liquid; for mass density: Vibrating tube method; for viscosity: Falling or rolling sphere viscometry

CCCCCCCC/C=C\CCCCCCCCn1cc[n+](C)c1.O=S(=O)([N-]S(=O)(=O)C(F)(F)F)C(F)(F)F
Details | mass density [kg/m3] | refractive index | viscosity [mPa·s]
[1], 283.2 K | – | 1.4576 | –
[1], 293.2 K | – | 1.4545 | –
[1], 298.2 K | – | 1.4528 | –
[1], 303.2 K | – | 1.4511 | –
[1], 313.2 K | – | 1.4479 | –
[1], 323.2 K | – | 1.4446 | –
[1], 333.2 K | – | 1.441 | –
[1], 343.2 K | – | 1.4379 | –
[2], 273.15 K | 1210.9 | – | –
[2], 278.15 K | – | – | 1005.3
[2], 283.15 K | 1202.62 | – | 698.6
[2], 288.15 K | – | – | 492.9
[2], 293.15 K | 1194.49 | – | 355.7
[2], 298.15 K | – | – | 263.5
[2], 303.15 K | 1186.39 | – | 222.85
[2], 313.15 K | 1178.38 | – | 133.94
[2], 323.15 K | 1170.38 | – | 85.97
[2], 333.15 K | 1162.47 | – | 58.09
[2], 343.15 K | 1154.57 | – | 41.09

Details | Normal melting temperature [°C]
[2], Crystal, DTA | -20.8
